{"source": "paper PMC5562305", "about": "“Impact of novel palmitoylated prolactin-releasing peptide analogs on metabolic changes in mice with diet-induced obesity” (PLoS ONE, 2017)", "tested_on": "urinary metabolites", "test": "NMR-based metabolomics of urine of DIO mice", "format": "in vivo, C57BL/6 mice", "parameters": "key to DMA, Mean / DMG, Mean / MA, Mean / TMA, Mean / acetate, Mean / allantoin, Mean / carnitine, Mean / choline, Mean / cis-aconitate, Mean / creatine+creatinine, Mean / creatine, Mean / creatinine, Mean / ethanolamine, Mean / formate, Mean / galactose, Mean / glucose, Mean / glycine, Mean / lactate, Mean / succinate, Mean / vinylacetylglycine, Mean: TSA-normalized intensity of the metabolite's representative NMR signal", "method": "Urine samples for NMR-based metabolomics were collected prior to the start of the interventions and at the end of the experiment. For overnight urine collection (from 5 pm to 8 am), the mice were housed in individual metabolic cages (Tecniplast, Buguggiate, Italy) without access to food. Samples were collected with the addition of NaN3 and stored at -80°C until NMR analysis.\nThe urine samples were thawed at room temperature and centrifuged at 13 684 x g for 5 min prior to the NMR experiments. A 200-μl aliquot of supernatant was diluted with 340 μl of H2O mixed with 60 μl of phosphate buffer (1.5 M KH2PO4 in D2O containing 2 mM NaN3 and 0.1% trimethylsilyl propionic acid (TSP), pH 7.4) and transferred to a 5-mm NMR tube. The NMR data were acquired with a 600 MHz Bruker Avance III spectrometer (Bruker BioSpin, Rheinstetten, Germany) equipped with a 5-mm TCI cryogenic probe head. All of the experiments were performed at 300 K. Automatic tuning, matching, shimming and adjusting of the 90° pulse length were performed for each sample.\nAs mouse urine naturally contains urinary proteins, the NMR spectra were acquired using a Carr-Purcell-Meiboom-Gill (CPMG) pulse sequence with water presaturation (Bruker pulse sequence cpmgpr1d) to eliminate the strong protein background. […] For better metabolite identification, a short J-resolved experiment with presaturation (NS = 2, SW = 16 ppm, TD = 8k, number of increments = 40, SW = 78.125 Hz in the indirect dimension, and relaxation delay = 2 s) was executed for all samples. Additional two-dimensional ^1H-^1H correlation spectroscopy (COSY) and ^1H-^13C heteronuclear multiple-quantum correlation (HMQC) experiments (Bruker pulse sequences cosygpprqf and hmqcphpr) were performed for selected samples.\nThe acquired data were processed using Topspin 3.2 software (Bruker BioSpin, Rheinstetten, Germany). Line broadening of 0.3 Hz was applied on free induction decays (FIDs) prior to Fourier transformation. The spectra were automatically phased, baseline corrected and referenced to the signal of TSP (0.00 ppm).\nThe assignment of individual metabolites was achieved by comparing the proton spectra with the spectra of pure metabolites using Chenomx NMR Suite 7.6 (Chenomx Inc., Edmonton, AB, Canada), the HMDB database and previously published metabolomic data. The identification of metabolites was supported through J-resolved and COSY experiments and, if possible, confirmed using carbon chemical shifts extracted from the HMQC spectra.\nFor quantitation of individual metabolites, the CPMG spectra were uniformly binned in the range of 0.10–10.00 ppm to 0.01-ppm intervals using AMIX software (Bruker BioSpin, Rheinstetten, Germany). This procedure reduced the dimensionality of the data, eliminated chemical shift variations and thus simplified the reproducible automatic quantification. Regions corresponding to water (4.60–4.90 ppm) and urea (5.60–6.00 ppm) were removed prior to analysis. As the dilutions of the original urine samples differed (due to the differences in water intake during urine collection), all of the spectra were normalized to the total spectral area (TSA). For each identified metabolite, one representative signal was chosen and then quantified as the sum of appropriate adjacent 0.01-ppm bins to cover the whole signal width. The metabolite concentration was expressed as the TSA-normalized intensity of the respective signal. For selection of an appropriate statistical method (parametric or non-parametric) the Lilliefors test of normality was performed. […] Metabolite alterations with a P < 0.05 were considered statistically significant. Statistical analysis was performed using Matlab software (“MATLAB version 8.6 (R2015b). Natick, Massachusetts: The MathWorks Inc., 2015.,” n.d.). […]", "key": {"[1]": {"settings": "urine NMR signal, DIO mice, group mean"}, "[2]": {"settings": "urine of DIO mice, NMR metabolomics, difference of analog mean vs saline mean"}}, "note": "Starred links: 1 amine or outer side, 2 acyl side, 3 side chain; linkers in the order of their positions; H or OH if unused. Residues, ends and D or L forms follow the SMILES beside them. Groups on a side chain read outwards from the residue. *: point of attachment. TTDA(Palmitoyl) = CCCCCCCCCCCCCCCC(=O)NCCCOCCOCCOCCCN*; Suc = O=C(CCC(=O)[*:2])[*:1]", "data": [{"smiles": "CCCCCCCCCCCCCCCC(=O)NCCCOCCOCCOCCCNC(=O)CCC(=O)NCCCC[C@H](NC(=O)[C@@H](NC(=O)[C@H](CCC(=O)O)NC(=O)[C@H](CCSC)NC(=O)[C@H](CO)NC(=O)[C@H](Cc1c[nH]cn1)NC(=O)[C@H](CCCNC(=N)N)NC(=O)[C@H](Cc1c[nH]cn1)NC(=O)[C@@H](NC(=O)[C@H](CCCNC(=N)N)NC(=O)[C@@H](N)CO)[C@@H](C)O)[C@@H](C)CC)C(=O)N[C@H](C(=O)N1CCC[C@H]1C(=O)N[C@@H](CC(=O)O)C(=O)N[C@H](C(=O)N[C@@H](CC(N)=O)C(=O)N1CCC[C@H]1C(=O)N[C@@H](C)C(=O)N[C@@H](Cc1c[nH]c2ccccc12)C(=O)N[C@@H](Cc1ccc(O)cc1)C(=O)N[C@@H](C)C(=O)N[C@@H](CO)C(=O)N[C@@H](CCCNC(=N)N)C(=O)NCC(=O)N[C@H](C(=O)N[C@@H](CCCNC(=N)N)C(=O)N1CCC[C@H]1C(=O)N[C@H](C(=O)NCC(=O)N[C@@H](CCCNC(=N)N)C(=O)N[C@@H](Cc1ccccc1)C(N)=O)C(C)C)[C@@H](C)CC)[C@@H](C)CC)[C@@H](C)O", "note": "[analog 2] (H-SRTHRHSMEIK([Suc-TTDA(Palmitoyl)])TPDINPAWYASRGIRPVGRF-NH2; N-terminus assumed)", "values": [{"measurement": "2-OG (2.45 ppm), Mean", "setting": "[1]", "value": 11.956}, {"measurement": "2-OG (3.01 ppm), Mean", "setting": "[1]", "value": 10.103}, {"measurement": "2-PY (8.33 ppm), Mean", "setting": "[1]", "value": 0.992}, {"measurement": "3-indoxylsulfate (7.51 ppm), Mean", "setting": "[1]", "value": 1.459}, {"measurement": "3-indoxylsulfate (7.71 ppm), Mean", "setting": "[1]", "value": 0.842}, {"measurement": "4-PY (7.97 ppm), Mean", "setting": "[1]", "value": 1.710}, {"measurement": "4-PY (8.55 ppm), Mean", "setting": "[1]", "value": 0.484}, {"measurement": "DMA, Mean", "setting": "[1]", "value": 5.145}, {"measurement": "DMG, Mean", "setting": "[1]", "value": 1.928}, {"measurement": "MA, Mean", "setting": "[1]", "value": 2.920}, {"measurement": "MNA (8.90 ppm), Mean", "setting": "[1]", "value": 0.407}, {"measurement": "MNA (8.97 ppm), Mean", "setting": "[1]", "value": 0.391}, {"measurement": "MNA (9.265 ppm), Mean", "setting": "[1]", "value": 0.413}, {"measurement": "MNA-Nox (7.75 ppm), Mean", "setting": "[1]", "value": 0.969}, {"measurement": "MNA-Nox (8.13 ppm), Mean", "setting": "[1]", "value": 0.725}, {"measurement": "MNA-Nox (8.49 ppm), Mean", "setting": "[1]", "value": 0.458}, {"measurement": "MNA-Nox (8.75 ppm), Mean", "setting": "[1]", "value": 0.434}, {"measurement": "N-carbamoylalanine (2.38 ppm), Mean", "setting": "[1]", "value": 10.919}, {"measurement": "N-carbamoylalanine (3.31 ppm), Mean", "setting": "[1]", "value": 9.060}, {"measurement": "N-isovalerylglycine + oxovalerate (0.92 ppm), Mean", "setting": "[1]", "value": 15.384}, {"measurement": "TMA, Mean", "setting": "[1]", "value": 10.220}, {"measurement": "acetate, Mean", "setting": "[1]", "value": 4.384}, {"measurement": "allantoin, Mean", "setting": "[1]", "value": 21.272}, {"measurement": "carnitine, Mean", "setting": "[1]", "value": 6.113}, {"measurement": "choline, Mean", "setting": "[1]", "value": 2.053}, {"measurement": "cis-aconitate, Mean", "setting": "[1]", "value": 9.014}, {"measurement": "citrate (2.55 ppm), Mean", "setting": "[1]", "value": 31.737}, {"measurement": "citrate (2.69 ppm), Mean", "setting": "[1]", "value": 28.801}, {"measurement": "creatine+creatinine, Mean", "setting": "[1]", "value": 23.782}, {"measurement": "creatine, Mean", "setting": "[1]", "value": 6.742}, {"measurement": "creatinine, Mean", "setting": "[1]", "value": 11.494}, {"measurement": "ethanolamine, Mean", "setting": "[1]", "value": 7.749}, {"measurement": "formate, Mean", "setting": "[1]", "value": 0.205}, {"measurement": "fumarate, Mean", "setting": "[1]", "value": 0.167}, {"measurement": "galactose, Mean", "setting": "[1]", "value": 0.806}, {"measurement": "glucose, Mean", "setting": "[1]", "value": 3.486}, {"measurement": "glycine, Mean", "setting": "[1]", "value": 6.185}, {"measurement": "hexanoylglycine + acids (0.88 ppm), Mean", "setting": "[1]", "value": 15.251}, {"measurement": "hippurate (7.55 ppm), Mean", "setting": "[1]", "value": 4.857}, {"measurement": "hippurate (7.64 ppm), Mean", "setting": "[1]", "value": 2.465}, {"measurement": "hippurate (7.84 ppm), Mean", "setting": "[1]", "value": 5.092}, {"measurement": "lactate, Mean", "setting": "[1]", "value": 7.122}, {"measurement": "multiplet acids (1.6 ppm), Mean", "setting": "[1]", "value": 12.357}, {"measurement": "putrescin, Mean", "setting": "[1]", "value": 8.544}, {"measurement": "succinate, Mean", "setting": "[1]", "value": 12.532}, {"measurement": "taurine (3.27 ppm), Mean", "setting": "[1]", "value": 20.714}, {"measurement": "taurine (3.43 ppm), Mean", "setting": "[1]", "value": 17.197}, {"measurement": "trigonelline (8.84 ppm), Mean", "setting": "[1]", "value": 0.310}, {"measurement": "trigonelline (9.13 ppm), Mean", "setting": "[1]", "value": 0.125}, {"measurement": "vinylacetylglycine, Mean", "setting": "[1]", "value": 3.494}, {"measurement": "2-OG (2.45 ppm), Saline/analog %", "setting": "[2]", "value": 0.017, "unit": "%"}, {"measurement": "2-OG (3.01 ppm), Saline/analog %", "setting": "[2]", "value": -0.013, "unit": "%"}, {"measurement": "2-PY (8.33 ppm), Saline/analog %", "setting": "[2]", "value": -0.147, "unit": "%"}, {"measurement": "3-indoxylsulfate (7.51 ppm), Saline/analog %", "setting": "[2]", "value": 0.120, "unit": "%"}, {"measurement": "3-indoxylsulfate (7.71 ppm), Saline/analog %", "setting": "[2]", "value": 0.094, "unit": "%"}, {"measurement": "4-PY (7.97 ppm), Saline/analog %", "setting": "[2]", "value": -0.055, "unit": "%"}, {"measurement": "4-PY (8.55 ppm), Saline/analog %", "setting": "[2]", "value": -0.165, "unit": "%"}, {"measurement": "DMA, Saline/analog %", "setting": "[2]", "value": 0.025, "unit": "%"}, {"measurement": "N-carbamoylalanine (2.38 ppm), Saline/analog %", "setting": "[2]", "value": 0.014, "unit": "%"}, {"measurement": "N-carbamoylalanine (3.31 ppm), Saline/analog %", "setting": "[2]", "value": -0.045, "unit": "%"}, {"measurement": "N-isovalerylglycine + oxovalerate (0.92 ppm), Saline/analog %", "setting": "[2]", "value": 0.062, "unit": "%"}, {"measurement": "TMA, Saline/analog %", "setting": "[2]", "value": -0.159, "unit": "%"}, {"measurement": "acetate, Saline/analog %", "setting": "[2]", "value": 0.167, "unit": "%"}, {"measurement": "allantoin, Saline/analog %", "setting": "[2]", "value": 0.054, "unit": "%"}, {"measurement": "carnitine, Saline/analog %", "setting": "[2]", "value": 0.027, "unit": "%"}, {"measurement": "choline, Saline/analog %", "setting": "[2]", "value": 0.042, "unit": "%"}, {"measurement": "cis-aconitate, Saline/analog %", "setting": "[2]", "value": 0.015, "unit": "%"}, {"measurement": "citrate (2.55 ppm), Saline/analog %", "setting": "[2]", "value": -0.026, "unit": "%"}, {"measurement": "citrate (2.69 ppm), Saline/analog %", "setting": "[2]", "value": -0.034, "unit": "%"}, {"measurement": "creatine+creatinine, Saline/analog %", "setting": "[2]", "value": 0.043, "unit": "%"}]}]}
